{"source": "paper PMC12856972", "about": "(Clinical Pharmacology in Drug Development, 2025)", "key": {"[1]": {"assay": "Plasma PK, 7-day trial BNC210.011", "type": "in vivo, human"}, "[2]": {"assay": "Plasma PK, multiple ascending dose trial BNC210.005", "type": "in vivo, human"}, "[3]": {"system": "healthy volunteers", "assay": "Karolinska Sleepiness Scale"}, "[4]": {"system": "healthy volunteers", "assay": "Safety and tolerability, Phase 1 trials", "type": "in vivo, human"}, "[5]": {"system": "patients with PTSD", "details": "12‐week; cited from earlier work"}, "[6]": {"assay": "Plasma PK, SAD trial BNC210.010", "type": "in vivo, human", "details": "150 mg‐strength tablet, fasted, up to 1200 mg"}, "[7]": {"molecular_target": "α7 nAChR (Homo sapiens, UniProt P36544)", "sequence (P36544 23-502)": "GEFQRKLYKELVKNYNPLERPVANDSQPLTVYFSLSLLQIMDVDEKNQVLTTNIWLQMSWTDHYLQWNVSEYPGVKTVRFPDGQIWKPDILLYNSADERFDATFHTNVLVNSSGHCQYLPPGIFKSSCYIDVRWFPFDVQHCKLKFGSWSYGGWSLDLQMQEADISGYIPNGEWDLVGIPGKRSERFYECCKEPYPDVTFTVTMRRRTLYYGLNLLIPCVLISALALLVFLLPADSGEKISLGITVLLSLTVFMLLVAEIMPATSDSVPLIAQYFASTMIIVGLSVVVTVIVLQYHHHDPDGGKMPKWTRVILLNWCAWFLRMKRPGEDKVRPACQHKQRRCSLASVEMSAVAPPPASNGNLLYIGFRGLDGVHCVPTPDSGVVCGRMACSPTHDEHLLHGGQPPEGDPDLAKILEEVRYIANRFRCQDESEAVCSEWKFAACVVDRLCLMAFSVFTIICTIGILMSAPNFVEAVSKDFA", "assay": "Nicotine shift assay, qEEG α2 band", "type": "in vivo", "details": "1,000 mg BID; particularly with 2 mg nicotine"}, "[8]": {"system": "healthy volunteers", "assay": "ARCI 49 abuse liability checklist"}, "[9]": {"assay": "Urinary excretion of unchanged drug, trial BNC210.001", "type": "in vivo, human", "details": "suspension, fasted"}, "[10]": {"assay": "Plasma PK, food effect SAD trial BNC210.002", "type": "in vivo, human", "details": "suspension"}, "[11]": {"system": "healthy volunteers", "assay": "Neuroendocrine biomarkers serum cortisol and ACTH", "details": "Phase 1 trials"}, "[12]": {"assay": "Plasma PK, single ascending dose trial BNC210.001", "type": "in vivo, human", "details": "suspension, fasted"}, "[13]": {"details": "suspension taken with food, out‐patient, NCT02933606; cited from earlier work"}, "[14]": {"system": "mouse and rat behavioral models of anxiety and stress‐related disorders", "details": "cited from earlier work"}, "[15]": {"system": "healthy volunteers", "assay": "Quantitative EEG profiling"}, "[16]": {"system": "healthy volunteers", "assay": "Subjective feelings on VAS"}, "[17]": {"system": "patients with GAD", "details": "cited from earlier work"}, "[18]": {"system": "healthy volunteers", "assay": "Digit Symbol Substitution Test"}, "[19]": {"system": "healthy volunteers", "assay": "Peak Saccadic Velocity"}, "[20]": {"system": "healthy volunteers", "assay": "CCK‐4 induced panic model", "type": "in vivo, human", "details": "2000 mg"}, "[21]": {"system": "social anxiety disorder patients", "details": "as‐needed acute dosing, NCT05193409; cited from earlier work"}, "[22]": {"assay": "Plasma PK, suspension vs 150 mg tablet cross-over trial BNC210.009", "type": "in vivo, human", "details": "300 mg tablet"}, "[23]": {"system": "healthy volunteers", "assay": "PEPSY psychometric test battery", "type": "in vivo, human", "details": "up to 1000 mg BID for 8 days; Day 1 and Day 8"}, "[24]": {"system": "healthy volunteers", "details": "in vivo"}, "[25]": {"details": "Phase 1 trials in healthy volunteers, N = 173"}}, "data": [{"compound": "CCn1cc(C(=O)N2CCOCC2)c(=O)c2cc(NC3Cc4ccccc4C3)cnc21", "note": "[BNC210]", "values": [{"measurement": "Day from which steady state achieved", "setting": "[1]; 225 mg‐strength tablet, 900 mg BID", "result": 3, "unit": "days"}, {"measurement": "Steady state AUC0‐12, tablet 900 mg BID vs suspension 1000 mg BID", "setting": "[1]; in vivo", "result": "double"}, {"measurement": "Dose proportionality of exposures", "setting": "[2]; suspension BID, increasing dose levels", "result": "less than dose‐proportional"}, {"measurement": "Mean steady state AUC0–12", "setting": "[2]; suspension, 1000 mg BID (2000 mg/day)", "result": 24900, "unit": "ng·h/mL"}, {"measurement": "Day steady state achieved", "setting": "[2]; suspension, 150 and 300 mg BID", "result": 2, "unit": "days"}, {"measurement": "Day steady state achieved", "setting": "[2]; suspension, 600 and 1000 mg BID", "result": 6, "unit": "days"}, {"measurement": "Karolinska Sleepiness Scale vs placebo", "setting": "[3]; 300 and 2000 mg", "result": "no increase in sleepiness"}, {"measurement": "TEAE Fatigue", "setting": "[4]; [25]", "result": "7 (4.1) n (%)"}, {"measurement": "TEAE Headache", "setting": "[4]; [25]", "result": "35 (20.2) n (%)"}, {"measurement": "TEAE Nausea", "setting": "[4]; [25]", "result": "8 (4.6) n (%)"}, {"measurement": "TEAE Somnolence", "setting": "[4]; [25]", "result": "16 (9.3) n (%)"}, {"measurement": "Dose relationship of CNS TEAEs (headache, somnolence, nausea, fatigue)", "setting": "[4]; SAD and MAD trials", "result": "did not suggest a dose relationship"}, {"measurement": "Serious adverse events", "setting": "[4]; eight Phase 1 trials", "result": "no serious adverse events were reported"}, {"measurement": "Maximum tolerated dose", "setting": "[4]; up to 2000 mg suspension and 1200 mg tablet", "result": "No maximum tolerated dose was found"}, {"measurement": "PTSD total symptom severity scores, depression, insomnia vs placebo", "setting": "[5]", "result": "effective at significantly reducing"}, {"measurement": "Dose proportionality of Cmax and AUC", "setting": "[6]", "result": "increased proportionally with dose"}, {"measurement": "Extent of inhibition of nicotine‐induced α2 band response", "setting": "[7]", "result": "partial"}, {"measurement": "ARCI 49 checklist", "setting": "[8]; trials BNC210.003, BNC210.004, BNC210.005", "result": "No clinically significant feelings associated with any classes of drugs of abuse"}, {"measurement": "Drug excreted unchanged in the urine", "setting": "[9]; single 5 mg", "result": "13.6 % of the dose administered"}, {"measurement": "Drug excreted unchanged in the urine", "setting": "[9]; single 2000 mg", "result": "0.6 % of the dose administered"}, {"measurement": "Increase in AUC with food", "setting": "[10]; 300 mg, fed vs fasted", "result": 3.5, "unit": "fold"}, {"measurement": "Increase in Cmax with food", "setting": "[10]; 300 mg, fed vs fasted", "result": "more than doubling"}, {"measurement": "Increase in AUC at 2000 mg over 1200 mg", "setting": "[10]; fed", "result": 15, "unit": "%"}, {"measurement": "Dose proportionality of exposure", "setting": "[10]; fed, 600 and 1200 mg", "result": "approximately dose‐proportional"}, {"measurement": "Effect on serum cortisol or ACTH", "setting": "[11]", "result": "No consistent effects"}, {"measurement": "Change in exposure with dose", "setting": "[12]; beyond 600 mg", "result": "no appreciable further increase in exposure"}, {"measurement": "Dose proportionality of AUC and Cmax", "setting": "[12]; dose levels up to 50 mg", "result": "increased approximately dose proportionately"}, {"measurement": "Plasma levels, population PK analysis", "setting": "[13]", "result": "appreciably lower than expected"}, {"measurement": "Activity in behavioral models of anxiety and stress‐related disorders", "setting": "[14]; broad therapeutic dosage range", "result": "effective"}, {"measurement": "Side effects in rodent models", "setting": "[14]; preclinical pharmacology and toxicology studies", "result": "did not elicit sedation, memory or motor impairment, or physical dependence"}, {"measurement": "qEEG alpha power", "setting": "[15]; 300 mg dose only", "result": "small decrease in alpha power"}, {"measurement": "qEEG delta activity vs placebo", "setting": "[15]; 300 and 2000 mg", "result": "increased delta EEG activity in the resting condition, but not the Vigilance‐Controlled condition"}, {"measurement": "qEEG delta power", "setting": "[15]; 300 and 2000 mg", "result": "some increase in delta power in the Resting condition only"}, {"measurement": "Overlap of EEG profile with lorazepam", "setting": "[15]; in vivo", "result": "little overlap in EEG profiles"}, {"measurement": "qEEG beta‐3", "setting": "[15]; in vivo", "result": "only a slight increase"}, {"measurement": "Subjective feelings on VAS (16‐item Bond and Lader or eVAS)", "setting": "[16]; trials BNC210.001, .002, .003, .005, basal state", "result": "No effects on subjective feelings"}, {"measurement": "Threat avoidance behavior and self‐reported anxiety", "setting": "[17]", "result": "significantly reduced"}, {"measurement": "Digit Symbol Substitution Test vs placebo", "setting": "[18]; 300 mg, 6‐h P < 0.05", "result": "no effects with 300 mg, except at the 6‐h time point only"}, {"measurement": "Digit Symbol Substitution Test vs placebo", "setting": "[18]; 2000 mg", "result": "no effects at any time point"}, {"measurement": "Peak saccadic velocity vs placebo", "setting": "[19]; 300 and 2000 mg", "result": "did not show any significant effect"}, {"measurement": "eVAS emotional stability vs placebo", "setting": "[20]; 5 min post CCK‐4 injection, P = 0.104", "result": "trend"}, {"measurement": "PSS Sum Intensity score vs placebo", "setting": "[20]; 10 min post CCK‐4 injection, 15 evaluable responders, P < 0.041", "result": "significant reduction"}, {"measurement": "PSS Total Symptom score vs placebo", "setting": "[20]; 10 min post CCK‐4 injection, 15 evaluable responders, P < 0.048", "result": "significant reduction"}, {"measurement": "Anxiety levels vs placebo", "setting": "[21]", "result": "improvements in anxiety levels"}, {"measurement": "Tmax", "setting": "[22]; fasted", "result": 2, "unit": "h"}, {"measurement": "Tmax", "setting": "[22]; fed", "result": 4, "unit": "h"}, {"measurement": "Cognition, PEPSY test battery", "setting": "[23]", "result": "no overall consistent effect on cognition"}, {"measurement": "Total reaction time vs placebo", "setting": "[24]", "result": "no increases in total reaction time"}]}, {"compound": "O=C1Nc2ccc(Cl)cc2C(c2ccccc2Cl)=NC1O", "note": "(stereo not shown) [lorazepam, reference compound]", "values": [{"measurement": "Karolinska Sleepiness Scale vs placebo", "setting": "[3]; 2 mg, 6‐h (P < 0.001), 9‐h (P < 0.05)", "result": "significant increase in the feeling of sleepiness"}, {"measurement": "ARCI 49 benzedrine subscale vs placebo", "setting": "[8]; 2 mg, P = 0.056", "result": "tended to score lower"}, {"measurement": "qEEG delta activity vs placebo", "setting": "[15]; 2 mg", "result": "increased delta activity during both the Resting and Vigilance‐Controlled conditions"}, {"measurement": "eVAS mood vs placebo", "setting": "[16]; 2 mg, trial BNC210.003, 6 h time point, P < 0.05", "result": "mood‐lowering effect"}, {"measurement": "Digit Symbol Substitution Test vs placebo", "setting": "[18]; 2 mg, 6‐h (P < 0.001), 9‐hour (P < 0.05)", "result": "significant effect"}, {"measurement": "Peak saccadic velocity (mean maximum) vs placebo", "setting": "[19]; 2 mg, 6, 9, and 12 h (P < 0.001)", "result": "significantly slower"}, {"measurement": "Total reaction time vs placebo", "setting": "[24]", "result": "significantly higher"}]}]}
